Measured values reported in PubChem BioAssay AID1963858 (Molecular Pharmacology Branch, DTP, NCI, 2024).

Tested on: HOP-62 multicell spheroids with HUVEC/MSC, viability
Test: Anticancer human tumor HOP-62 cell line growth inhibition [KRAS2];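 further: viability read after a week of compound exposure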;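 on viability, T/C: 100% = DMSO vehicle-treated spheroids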
Details: for IC50: curve of first compound; for viability, T/C: stronger effect = lower value
Procedure, shortened: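 Combination screen of spheroid viability in tumor-cell co-cultures with endothelial (HUVEC) and mesenchymal stem cell stroma. Each agent was tested in half-log dilutions, topping at clinical Cmax or at 10 microM without a known Cmax.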

[1] = second compound 0.1 µM, first compound 0.000316 µM
[2] = second compound 0.1 µM, first compound 0.001 µM
[3] = second compound 0.1 µM, first compound 0.00316 µM
[4] = second compound 0.1 µM, first compound 0.01 µM
[5] = second compound 0.1 µM, first compound 0.0316 µM
[6] = second compound 0.316 µM, first compound 0.000316 µM
[7] = second compound 0.316 µM, first compound 0.001 µM
[8] = second compound 0.316 µM, first compound 0.00316 µM
[9] = second compound 0.316 µM, first compound 0.01 µM
[10] = second compound 0.316 µM, first compound 0.0316 µM
[11] = second compound 1 µM, first compound 0.000316 µM
[12] = second compound 1 µM, first compound 0.001 µM
[13] = second compound 1 µM, first compound 0.00316 µM
[14] = second compound 1 µM, first compound 0.01 µM
[15] = second compound 1 µM, first compound 0.0316 µM
[16] = second compound 3.16 µM, first compound 0.000316 µM
[17] = second compound 3.16 µM, first compound 0.001 µM
[18] = second compound 3.16 µM, first compound 0.00316 µM
[19] = second compound 3.16 µM, first compound 0.01 µM
[20] = second compound 3.16 µM, first compound 0.0316 µM
[21] = second compound 10 µM, first compound 0.000316 µM
[22] = second compound 10 µM, first compound 0.001 µM
[23] = second compound 10 µM, first compound 0.00316 µM
[24] = second compound 10 µM, first compound 0.01 µM
[25] = second compound 10 µM, first compound 0.0316 µM
[26] = second compound 0.1 µM, first compound 0.1 µM
[27] = second compound 0.316 µM, first compound 0.1 µM
[28] = second compound 1 µM, first compound 0.1 µM
[29] = second compound 3.16 µM, first compound 0.1 µM
[30] = second compound 10 µM, first compound 0.1 µM
[31] = second compound 0.1 µM, first compound 0.316 µM
[32] = second compound 0.1 µM, first compound 1 µM
[33] = second compound 0.1 µM, first compound 3.16 µM
[34] = second compound 0.1 µM, first compound 10 µM
[35] = second compound 0.316 µM, first compound 0.316 µM
[36] = second compound 0.316 µM, first compound 1 µM
[37] = second compound 0.316 µM, first compound 3.16 µM
[38] = second compound 0.316 µM, first compound 10 µM
[39] = second compound 1 µM, first compound 0.316 µM
[40] = second compound 1 µM, first compound 1 µM
[41] = second compound 1 µM, first compound 3.16 µM
[42] = second compound 1 µM, first compound 10 µM
[43] = second compound 3.16 µM, first compound 0.316 µM
[44] = second compound 3.16 µM, first compound 1 µM
[45] = second compound 3.16 µM, first compound 3.16 µM
[46] = second compound 3.16 µM, first compound 10 µM
[47] = second compound 10 µM, first compound 0.316 µM
[48] = second compound 10 µM, first compound 1 µM
[49] = second compound 10 µM, first compound 3.16 µM
[50] = second compound 10 µM, first compound 10 µM

CC(=O)Nc1cccc(-n2c(=O)n(C3CC3)c(=O)c3c(Nc4ccc(I)cc4F)n(C)c(=O)c(C)c32)c1 + COc1cc2nc(C)nc(NC(C)c3cc(N)cc(C(F)(F)F)c3)c2cc1OC1CCOC1
IC50 (second compound 0.1 µM): 2.5 nM
IC50 (second compound 0.316 µM): 3.01 nM
IC50 (second compound 1 µM): 2.01 nM
IC50 (second compound 3.16 µM): 0.494 nM
IC50 (second compound 10 µM): < 0.1 nM
viability, T/C (second compound 0.1 µM, first compound 0.0001 µM): 111%
viability, T/C [1]: 79%
viability, T/C [2]: 77.8%
viability, T/C [3]: 42.5%
viability, T/C [4]: 25.5%
viability, T/C [5]: 23.8%
viability, T/C (second compound 0.316 µM, first compound 0.0001 µM): 85.2%
viability, T/C [6]: 91.4%
viability, T/C [7]: 79.9%
viability, T/C [8]: 49.2%
viability, T/C [9]: 24.9%
viability, T/C [10]: 24.5%
viability, T/C (second compound 1 µM, first compound 0.0001 µM): 84.1%
viability, T/C [11]: 75.8%
viability, T/C [12]: 75.5%
viability, T/C [13]: 33.6%
viability, T/C [14]: 24.9%
viability, T/C [15]: 25.2%
viability, T/C (second compound 3.16 µM, first compound 0.0001 µM): 58.1%
viability, T/C [16]: 50.5%
viability, T/C [17]: 45.8%
viability, T/C [18]: 29.2%
viability, T/C [19]: 21.9%
viability, T/C [20]: 22.7%
viability, T/C (second compound 10 µM, first compound 0.0001 µM): 39.6%
viability, T/C [21]: 33.7%
viability, T/C [22]: 31.4%
viability, T/C [23]: 27.8%
viability, T/C [24]: 25.3%
viability, T/C [25]: 22.1%

CC(C)n1nc(-c2ccc3oc(N)nc3c2)c2c(N)ncnc21 + COc1cc2nc(C)nc(NC(C)c3cc(N)cc(C(F)(F)F)c3)c2cc1OC1CCOC1
IC50 (second compound 0.1 µM): 3.27 nM
IC50 (second compound 0.316 µM): 2.34 nM
IC50 (second compound 1 µM): 1.8 nM
IC50 (second compound 3.16 µM): < 0.316 nM
IC50 (second compound 10 µM): < 0.316 nM
viability, T/C [1]: 103%
viability, T/C [2]: 77%
viability, T/C [3]: 50.4%
viability, T/C [4]: 32.2%
viability, T/C [5]: 18.1%
viability, T/C [26]: 15.5%
viability, T/C [6]: 82.5%
viability, T/C [7]: 64.2%
viability, T/C [8]: 46%
viability, T/C [9]: 26.9%
viability, T/C [10]: 21.4%
viability, T/C [27]: 13.8%
viability, T/C [11]: 86.7%
viability, T/C [12]: 67.1%
viability, T/C [13]: 32%
viability, T/C [14]: 23.9%
viability, T/C [15]: 16.5%
viability, T/C [28]: 11.3%
viability, T/C [16]: 47.8%
viability, T/C [17]: 42.4%
viability, T/C [18]: 25.2%
viability, T/C [19]: 17.3%
viability, T/C [20]: 11.8%
viability, T/C [29]: 8.61%
viability, T/C [21]: 37.7%
viability, T/C [22]: 30.7%
viability, T/C [23]: 20.9%
viability, T/C [24]: 14.8%
viability, T/C [25]: 10.9%
viability, T/C [30]: 8.71%

COc1cc(Nc2ncc3c(n2)-c2ccc(Cl)cc2C(c2c(F)cccc2OC)=NC3)ccc1C(=O)O + COc1cc2nc(C)nc(NC(C)c3cc(N)cc(C(F)(F)F)c3)c2cc1OC1CCOC1
IC50 (second compound 0.1 µM): 237 nM
IC50 (second compound 0.316 µM): 124 nM
IC50 (second compound 1 µM): < 31.6 nM
IC50 (second compound 3.16 µM): < 31.6 nM
IC50 (second compound 10 µM): < 31.6 nM
viability, T/C [5]: 58%
viability, T/C [26]: 61.3%
viability, T/C [31]: 43.1%
viability, T/C [32]: 39.1%
viability, T/C [33]: 25.6%
viability, T/C [34]: 19.1%
viability, T/C [10]: 53.7%
viability, T/C [27]: 50%
viability, T/C [35]: 44%
viability, T/C [36]: 41.8%
viability, T/C [37]: 23.5%
viability, T/C [38]: 16.1%
viability, T/C [15]: 44.8%
viability, T/C [28]: 42.4%
viability, T/C [39]: 35.7%
viability, T/C [40]: 30.5%
viability, T/C [41]: 23.8%
viability, T/C [42]: 16.7%
viability, T/C [20]: 35.5%
viability, T/C [29]: 31.4%
viability, T/C [43]: 28.8%
viability, T/C [44]: 25.1%
viability, T/C [45]: 19.7%
viability, T/C [46]: 13.2%
viability, T/C [25]: 32.8%
viability, T/C [30]: 28.6%
viability, T/C [47]: 30.9%
viability, T/C [48]: 29.1%
viability, T/C [49]: 18%
viability, T/C [50]: 8.97%

COc1cc2nccc(Oc3ccc(NC(=O)C4(C(=O)Nc5ccc(F)cc5)CC4)cc3)c2cc1OC + COc1cc2nc(C)nc(NC(C)c3cc(N)cc(C(F)(F)F)c3)c2cc1OC1CCOC1
IC50 (second compound 0.1 µM): > 10000 nM
IC50 (second compound 0.316 µM): > 10000 nM
IC50 (second compound 1 µM): > 10000 nM
IC50 (second compound 3.16 µM): 901 nM
IC50 (second compound 10 µM): 235 nM
viability, T/C [5]: 100%
viability, T/C [26]: 113%
viability, T/C [31]: 113%
viability, T/C [32]: 80.8%
viability, T/C [33]: 63.8%
viability, T/C [34]: 123%
viability, T/C [10]: 89.4%
viability, T/C [27]: 114%
viability, T/C [35]: 126%
viability, T/C [36]: 85.8%
viability, T/C [37]: 59.4%
viability, T/C [38]: 114%
viability, T/C [15]: 86.8%
viability, T/C [28]: 92.2%
viability, T/C [39]: 101%
viability, T/C [40]: 55.9%
viability, T/C [41]: 47%
viability, T/C [42]: 97.5%
viability, T/C [20]: 71.8%
viability, T/C [29]: 94.9%
viability, T/C [43]: 81.6%
viability, T/C [44]: 46%
viability, T/C [45]: 0.59%
viability, T/C [46]: 94%
viability, T/C [25]: 54.9%
viability, T/C [30]: 49.1%
viability, T/C [47]: 49.3%
viability, T/C [48]: 24.5%
viability, T/C [49]: 0.58%
viability, T/C [50]: 73%
